In article PMC6268061, “Investigation of the Biological Properties of (Hetero)Aromatic Thiosemicarbazones” (Molecules, 2012):

Assay: Lipophilicity determination using RP-HPLC (capacity factor, log k)
Assay type: physicochemical
Details: C18, MeOH 55%/H2O 45%
How it was run: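 Isocratic RP-HPLC on a C18 column (5 μm, 4.6 × 250 mm), 55% MeOH/45% water at 0.9 mL/min, 30 °C, UV detection 210 nm. Dead time from KI; capacity factor k = (tR − tD)/tD, with log k taken as the lipophilicity index on log P scale.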

Structure (SMILES)	log k
CN(C)C(=S)N/N=C/c1ccc(Cl)c(Cl)c1 [Compound 3h, (E)-2-(3,4-Dichlorobenzylidene)-N,N-dimethylhydrazinecarbothioamide]	0.7555
NC(=S)N/N=C/c1ccc(Br)cc1 [Compound 3k, (E)-2-(4-Bromobenzylidene)hydrazinecarbothioamide]	0.6580
CN(C)C(=S)N/N=C/c1ccc(Br)cc1 [Compound 3m, (E)-2-(4-bromobenzylidene)-N,N-dimethylhydrazinecarbothioamide]	0.6784
